Results published in a melting point compilation (Tetko et al.; mined from patent text by program, amines drawn as free bases though some values may be those of a salt).

Compound	melting point [°C]
Cc1c(C)c2c(c(C)c1NC(=O)NCCO)C(c1ccc(C(C)C)cc1)CO2 (stereo unspecified)	186 to 188
O=C1NC(=O)C(Nc2ccc(CCNCC(O)COc3ccc(OCc4ccccc4)cc3)cc2)S1 (stereo unspecified)	152
COc1ccc([C@@H]2O[C@H]2C(=O)O[C@@H]2CCCC[C@H]2c2ccccc2)cc1	146 to 148
NC(=O)Cc1cccc(OCCN2CCC(Cc3ccccc3)CC2)c1	100 to 101
Cc1c(C)c(N2C(=O)c3ccccc3C2=O)c(C)c2c1OC(C)(C)C2c1ccc(C(C)C)cc1 (stereo unspecified)	180 to 181
COC1(NC(=O)NS(=O)(=O)c2cccc(N=C=O)c2)C=C(C)N=CN1 (stereo unspecified)	147 to 157
O=c1c2c(Cc3ccccc3Cl)n[nH]c2c2cccnc2n1-c1cccc(C(F)(F)F)c1	276 to 278
CC1(C)[C@@H](CNc2ccc(C(F)(F)F)cn2)CC[C@@]1(C)NCC(=O)N1C[C@@H](F)C[C@H]1C#N	52 to 58
CC(=O)c1ccc(-c2ccc(OCc3nc4ccccc4s3)cc2)c(F)c1	170 to 172
COc1cc(C)cc(OC)c1CCCCCNC(=O)[C@@H](CCCCNC(=O)C=Cc1ccccc1)NC(=O)c1cc2ccccc2n1CC(=O)O	172
CN(C)CCNC(=O)[C@H]1C[C@H](NC(=O)Cc2ccccc2)c2c(Cl)cc(Cl)cc2N1 (relative stereo)	158 to 159
Cc1cc(OC(F)F)nc(NC(=O)NS(=O)(=O)c2ccccc2OC(F)F)n1	163 to 164
CN(c1cccc2cc(-c3nccs3)[nH]c12)S(=O)(=O)c1ccsc1CS(C)(=O)=O	253
O=C(C1CC2(CCN1)OCCO2)N1CCCC1 (stereo unspecified)	72.5 to 74.5
C[C@H](NS(=O)(=O)C12CC3CC(CC(C3)C1)C2)C(=O)N1CCC[C@H]1C(=O)Nc1ccccc1	138 to 141
C=CCOc1cc(OC(=S)N2CCCC2)ccc1Cl	87.3 to 91.1
Cc1nc(N2CCc3ccccc3CC2)c(C#N)c(=O)n1OC(C)C	127 to 128
CC(=O)NC12CCCC(C1)C1CCC2C1 (stereo unspecified)	138 to 139
Cc1c(C)c2c(c(C)c1N)C(c1ccc(Br)cc1)C(C)(C)O2 (single isomer, unassigned; (+))	143 to 144
COCc1cccc2c1OCCC(C(=O)OC)=C2	76 to 78
Nc1ccc(F)cc1-c1nc[nH]n1	142 to 144
CN(CCO)Cc1cc(C(=O)c2cccs2)cc(C(C)(C)C)c1O	98 to 100
COc1ccc(-c2ccc(N)nn2)cc1OCC(C)C	187
CCOC(=O)[C@H](C)NCC(=O)Nc1c2c(nc3ccccc13)CCCC2	101 to 102

Compound	melting point [°C]
Cc1c(C(O)Cc2ccccc2)cc(I)[nH]c1=O (stereo unspecified)	166 to 167
COC(=O)c1c2c(c3cc4c(cc3c1-c1ccc(OC)c(OC)c1)OCO4)OCOC2=O	168 to 170
COc1ncccc1-c1[nH]c2ccccc2c1C1CCN(S(=O)(=O)c2ccccc2)CC1	231 to 234
CNc1nnc(-c2cc(C(C)(C)C)c(O)c(C(C)(C)C)c2)s1	208
CN(C(N)=O)c1ccc(C(O)(C(F)(F)F)C(F)(F)F)cc1	181 to 184
CC(=O)NCCOc1cc(N)c(Cl)cc1C(=O)NCCN(C)C	143 to 145
COc1ccc(CC(=O)c2c(O)c3cccnc3n(-c3ccccc3)c2=O)c(OC)c1	200 to 202
Cc1nc(Cn2c(=O)sc3cc(F)c(N=C=O)cc32)no1	125 to 127
COc1ncc(C(=O)Cc2c(Cl)cncc2Cl)cc1OC1CCCC1	118 to 119
CS(=O)(=O)Cc1ccc(Oc2cc(OC3CCOCC3)c3[nH]c(C4=NCC(CC(N)=O)S4)cc3c2)cn1 (stereo unspecified)	164 to 167
O=C(Nc1ccc2[nH]c(=O)[nH]c2c1)C(=O)N1CCC(Cc2ccccc2)CC1	> 260
CCCNc1nc(=O)n(C2CC(N=[N+]=[N-])C(CO)O2)cc1C (stereo unspecified)	59 to 62
Cc1ccsc1C(=O)c1sc(Nc2ccc(S(N)(=O)=O)cc2)nc1N	284 to 286
CC(C)CC(NC(=O)COc1cccc2ccccc12)C(=O)NC(Cc1ccccc1)C(=O)CSCc1ccco1 (stereo unspecified)	118 to 120
CCCn1c(=O)c2[nH]c(C3CC4COCC4C3)nc2n(CCC)c1=O (stereo unspecified)	226 to 230
Cc1ccc(-n2nc(C(F)(F)F)cc2-c2ccc(S(C)(=O)=O)c(F)c2)cc1Cl	144 to 145
C=CC[C@H]1C(=O)N(S(=O)(=O)c2ccc3ccccc3c2)[C@H]2CCN(C(=O)OCc3ccccc3)[C@H]12 (relative stereo)	158 to 160
O=[N+]([O-])c1ccc(C2=NCCCN2)cc1	168 to 172
COc1ccc(NC(=O)CCl)c(OC)c1	90 to 91
CCCCCCCCCCCCC(OC(C)=O)C1=CC(=O)OC1O (stereo unspecified)	67 to 68
O=C(CCl)NC(C(=O)O)N(C(=O)CCl)c1cscn1 (stereo unspecified)	184 to 186
CNC(=O)[C@@H]1CCCC[C@@H]1Nc1nc(Cl)ncc1Cl (relative stereo)	108
N#Cc1cnc2cc(-c3ccc(C=O)cc3)sc2c1Nc1ccc(Oc2ccccc2)cc1	230 to 232
O=c1ccc2c(-n3ccnc3)nccc2[nH]1	291 to 292

Compound	melting point [°C]
CNC(=O)C(Cc1ccc(OC)cc1)NC(=O)C(C)(CC(C)C)c1ccccc1S (stereo unspecified)	165 to 168
COc1cc(COc2nn(Cc3ccccc3)cc2C=O)ccc1OCc1nc(-c2ccco2)oc1C	139 to 140
CCC(=O)NN=C(c1ccc(Cl)cc1)c1ccc(NS(=O)(=O)c2ccccc2)cc1	238 to 240
COC(=O)[C@H](Cc1ccc(OS(=O)(=O)C(F)(F)F)cc1)NC(=O)OC(C)(C)C	47 to 48
CC(C)(C)OC(=O)Cn1cc(C[C@@H](N)C(=O)O)c2ccccc21	260
Cn1c(C(F)(F)F)cc(=O)n(-c2cc(OCSc3ccccc3)c(Cl)cc2F)c1=O	91 to 94
Cn1ccc(C(=O)c2ccc(Cc3ccc(F)cc3)o2)c(O)c1=O	145 to 147
COC(=O)c1cc(C(=O)N[C@@H](Cc2ccccc2)[C@H]2CN(C3(c4cccc(C(F)(F)F)c4)CC3)C(=O)O2)n2c1CN(S(C)(=O)=O)CC2	104
COc1ccc2nc3c(cc2c1)c(N)nn3C	185 to 186
CC(=O)Nc1ccc(OC(F)(F)F)cc1Br	123
CC(=O)OCc1c(C)cc(C)c(NC(=O)c2sccc2S(=O)(=O)Nc2onc(C)c2C)c1C	75 to 77
COC(=O)CN1C(=O)CC1SCc1ccc(OC)cc1 (stereo unspecified)	45 to 46
CCOC(=O)c1cnc2nn(C)cc2c1NCCCN(C)C	61 to 63
Cc1c[nH]c(-c2c(Cl)cc(C(F)(F)F)cc2Cl)n1	211 to 212
COc1cc([N+](=O)[O-])c2nccc(C)c2c1OCCCCc1ccccc1	88 to 89
Cc1nc2ccccc2c2ccc(F)cc12	92 to 93
CCCN(CCC)C1Cc2cc3c(cc2C1)C(=O)N(c1ccc(C#N)cc1)C3=O	250 to 251
CSc1ncnn1C[C@]1(c2ccc(F)c(F)c2)O[C@@H]1c1ccccc1C(F)(F)F (relative stereo)	83 to 85
N#CCCn1c(-c2ccccc2)cc2ccccc21	90
Cc1cc(-c2nc3cccnn3c2-c2ccnc(NC(=O)c3ccncc3)c2)ccc1F	219 to 220
C=Cc1ncn2c1[C@@H]1CCN1C(=O)c1c(Cl)cccc1-2	171 to 172
N#Cc1cnc2cc(/C=C/CCN3CCOCC3)ccc2c1Nc1ccc(Cl)cc1Cl	129 to 131
CCN(CC)C(=O)n1ccc(S(=O)(=O)c2cc(Cl)cc(Cl)c2)n1	103 to 106
CC1CCCCC1OC(=O)c1ncn2c1C1CCCN1C(=O)c1c(Cl)cccc1-2 (stereo unspecified)	213 to 215

Compound	melting point [°C]
OC1COC(c2ccc(Cl)cc2)OC1 (stereo unspecified)	95 to 100
COc1cccc(-c2nc(N)ncc2-c2ccc(=O)[nH]n2)c1	134
CC(C)COC(=O)c1ccc(OCC(=NO)c2ccc3c(c2)C(C)(C)CCC3(C)C)cc1O	96
CN(C(=O)CNc1nc(-c2ccccc2)ncc1[N+](=O)[O-])c1ccccc1	194 to 196
CCOC(=O)c1c2ccc(Cl)cc2c(-c2ccccc2)n1C1=CCC(=O)C=C1	94 to 95
CN1CCOC(C2=C(C#N)C(c3cccc(C#N)c3Br)c3c[nH]nc3N2)C1 (stereo unspecified)	180
CCN1CCCC1CNC(=O)c1nc(NC)sc1-c1ccncc1 (stereo unspecified)	76 to 78
COc1cc2c(cc1OC)C(C(CO)CO)=NCC2	129
Cn1ncnc1COc1cc(N)c2cnn(-c3ccccc3)c2n1	164 to 166
CCCc1c(OCCCCCCc2cccc(OCCCCCC(=O)O)c2CCC(=O)O)ccc2c1OCCC2=O	86 to 88
C#CCOc1cc([N+](=O)[O-])c(F)cc1Cl	88 to 89
O=C(Cl)CC(c1ccccc1)(c1ccccc1)c1ccccc1	182
Fc1cc(Cl)c(OC(F)F)cc1-n1nc2c(c1Cl)CCCC2	83 to 85
CCC(=O)Nc1ccc(NC(=O)CN2CCN(CCCCC(c3ccc(F)cc3)c3ccc(F)cc3)C(C(N)=O)C2)c(C(C)=O)c1 (stereo unspecified)	163
Ic1ccc(N(c2ccccc2)c2ccccc2)cc1	102 to 104
ON=C1CCc2c(cccc2OCC(O)CN2CCN(C(c3ccccc3)c3ccccc3)CC2)C1 (stereo unspecified)	177
Cc1cc2c(c(C)c1Br)C(c1ccc(C(C)C)cc1)CO2 (stereo unspecified)	90 to 91
CCCCCCc1nc(C(C)=O)c[nH]1	104 to 106
c1ccc(CNCc2n[nH]c(-c3ccc(CN4CCCCCC4)s3)n2)cc1	155 to 157
CC(=Cc1ccc(O)cc1)c1ccc2c(c1)C(C)(C)C(O)C2(C)C (stereo unspecified)	148 to 149
COc1ccc(-c2c[nH]c(-c3cccnc3)n2)cc1	184 to 186
COC(=O)C(c1ccc(OCCNC(=O)C2Cc3ccccc3N2S(=O)(=O)c2ccc(-c3cccc(C(F)(F)F)c3)cc2)cc1)C(C)C (stereo unspecified)	68 to 76
CC(C)C[C@@H]1N[C@@H](c2ccc(C#N)cc2)[C@H]2C(=O)N(Cc3ccccc3)C(=O)[C@H]21 (racemic)	152 to 153
O=C1NC(=O)C(S(=O)(=O)c2ccc(F)cc2)S1 (stereo unspecified)	190 to 196
